Results as given in patent publication US5663162A, “Cephem derivatives” (priority 1993, dated 1997).
Values after ≈ are worked out from the molar mass of the structure shown. Like-named read-outs stand apart in the source and are kept apart here.

Assays:
Assay in all cases: Antibacterial activity test, MIC by two-fold dilution method
C. freundii GN346/16 = type: cell-based; settings: Citrobacter freundii
Protocol: (§1) The measurement was carried out in the following manner: 10^6 CFU/ml of a bacterium to be tested was inoculated on a Medium N for disc susceptibility test (manufactured by Nissui Pharmaceutical Co., Ltd.), and cultivated at 35° C. for 18 to 20 hours.

E. cloacae G-0008 = type: cell-based; settings: Enterobacter cloacae, G0008; E. cloacae G-0008; 10^6 CFU/ml, 35° C., 18 to 20 hours; read-out: Minimum Inhibition Concentration
Protocol: as §1

E. coli NIHJ JC-2 = type: cell-based; settings: Escherichia coli, NIHJJC2; E. coli NIHJ JC-2; 10^6 CFU/ml, 35° C., 18 to 20 hours; read-out: Minimum Inhibition Concentration
Protocol: as §1

K. pneumoniae PC1602 = type: cell-based; settings: Klebsiella pneumoniae; K. pneumoniae PC1602; 10^6 CFU/ml, 35° C., 18 to 20 hours; read-out: Minimum Inhibition Concentration
Protocol: as §1

M. morganii 1510/S-1 = type: cell-based; settings: Morganella morganii
Protocol: as §1

P. aeruginosa E-2 = type: cell-based; settings: Pseudomonas aeruginosa, E2; P. aeruginosa E-2; 10^6 CFU/ml, 35° C., 18 to 20 hours; read-out: Minimum Inhibition Concentration
Protocol: as §1

P. aeruginosa GN10362 = type: cell-based; settings: Pseudomonas aeruginosa
Protocol: as §1

P. vulgaris GN76 = type: cell-based; settings: Proteus vulgaris
Protocol: as §1

S. Aureus 209P JC-1 = type: cell-based; settings: Staphylococcus aureus, read-out: Minimum Inhibition Concentration
Protocol: as §1

S. epidermidis ATCC14990 = type: cell-based; settings: Staphylococcus epidermidis
Protocol: as §1

S. marcescens No. 1 = type: cell-based; settings: Serratia marcescens
Protocol: as §1

S. Aureus 126 = type: cell-based, Staphylococcus aureus (methicillin-resistant, MRSA); settings: Staphylococcus aureus; S. Aureus 126 (MRSA); 10^6 CFU/ml, 35° C., 18 to 20 hours; read-out: Minimum Inhibition Concentration
Protocol: as §1

S. Aureus 133 = type: cell-based, Staphylococcus aureus (methicillin-resistant, MRSA); settings: Staphylococcus aureus, read-out: Minimum Inhibition Concentration
Protocol: as §1

[1] = C. freundii GN346/16, 10^6 CFU/ml, 35° C., 18 to 20 hours, read-out: Minimum Inhibition Concentration
[2] = 1510/S1, M. morganii 1510/S-1, 10^6 CFU/ml, 35° C., 18 to 20 hours, read-out: Minimum Inhibition Concentration
[3] = P. aeruginosa GN10362, 10^6 CFU/ml, 35° C., 18 to 20 hours, read-out: Minimum Inhibition Concentration
[4] = P. vulgaris GN76, 10^6 CFU/ml, 35° C., 18 to 20 hours, read-out: Minimum Inhibition Concentration
[5] = ATCC14990, read-out: Minimum Inhibition Concentration
[6] = S. marcescens No. 1, 10^6 CFU/ml, 35° C., 18 to 20 hours, read-out: Minimum Inhibition Concentration
[7] = GN76, read-out: Minimum Inhibition Concentration
[8] = S. epidermidis ATCC14990, 10^6 CFU/ml, 35° C., 18 to 20 hours, read-out: Minimum Inhibition Concentration
[9] = S. Aureus 133 (MRSA), 10^6 CFU/ml, 35° C., 18 to 20 hours

SMILES | MIC (C. freundii GN346/16; [1]) | MIC (E. cloacae G-0008) | MIC (E. coli NIHJ JC-2) | MIC (K. pneumoniae PC1602) | MIC (M. morganii 1510/S-1; [2]) | MIC (P. aeruginosa E-2) | MIC (P. aeruginosa GN10362; [3]) | MIC (P. vulgaris GN76; [4]) | MIC (S. Aureus 209P JC-1; 209P) | MIC (S. epidermidis ATCC14990; [5]) | MIC (S. marcescens No. 1; [6]) | MIC (S. Aureus 126) | MIC (S. Aureus 133; MRSA) | MIC (P. vulgaris GN76; [7]) | MIC (S. epidermidis ATCC14990; [8]) | MIC (S. Aureus 133; [9]) | further results
NC(=O)c1csc2c[n+](CC3=C(C(=O)[O-])N4C(=O)[C@@H](NC(=O)/C(=N\OCCF)c5nsc(N)n5)[C@H]4SC3)cn12 [Example 48, (6R,7R)-7-[(Z)-2-(5-Amino-2,4-thiadiazol-3-yl)-2-(2-fluoroethoxyimino)acetamide]-3-(3-carbamoylimidazo[5,1-b]thiazolium-6-yl)methyl-3-cephem-4-carboxylate] | 0.1 µg/mL (≈ 0.168 µM) | ≤ 0.025 µg/mL | ≤ 0.025 µg/mL | ≤ 0.025 µg/mL | ≤ 0.025 µg/mL | 0.78 µg/mL (≈ 1.31 µM) | 0.78 µg/mL (≈ 1.31 µM) | 0.2 µg/mL (≈ 0.336 µM) | 0.39 µg/mL (≈ 0.655 µM) | 0.39 µg/mL (≈ 0.655 µM) | ≤ 0.025 µg/mL | 12.5 µg/mL (≈ 21 µM) | 6.25 µg/mL (≈ 10.5 µM) | – | – | – | –
CO/N=C(\C(=O)N[C@@H]1C(=O)N2C(C(=O)[O-])=C(C[n+]3cc4sccn4c3CO)CS[C@H]12)c1nsc(N)n1 [Example 31] | 0.1 µg/mL (≈ 0.182 µM) | 0.05 µg/mL (≈ 0.0908 µM) | ≤ 0.025 µg/mL | 0.05 µg/mL (≈ 0.0908 µM) | 0.05 µg/mL (≈ 0.0908 µM) | 3.13 µg/mL (≈ 5.68 µM) | 3.13 µg/mL (≈ 5.68 µM) | – | – | – | 0.05 µg/mL (≈ 0.0908 µM) | 12.5 µg/mL (≈ 22.7 µM) | 6.25 µg/mL (≈ 11.4 µM) | 0.39 µg/mL (≈ 0.708 µM) | 0.78 µg/mL (≈ 1.42 µM) | – | MIC (S. Aureus 209P JC-1; S. Aureus 209P JC-1, 10^6 CFU/ml, 35° C., 18 to 20 hours): 0.78 µg/mL (≈ 1.42 µM)
Nc1nc(/C(=N/OC2CCCC2)C(=O)N[C@@H]2C(=O)N3C(C(=O)[O-])=C(C[n+]4cc5sccn5c4)CS[C@H]23)ns1 [Example 112, (6R,7R)-7-[(Z)-2-(5-Amino-1,2,4-thiadiazol-3-yl)-2-cyclopentyl-oxyiminoacetamide]-3-(imidazo[5,1-b]thiazolium-6-yl)methyl-3-cephem-4-carboxylate] | 0.78 µg/mL (≈ 1.36 µM) | 0.78 µg/mL (≈ 1.36 µM) | 0.78 µg/mL (≈ 1.36 µM) | 0.78 µg/mL (≈ 1.36 µM) | – | 3.13 µg/mL (≈ 5.45 µM) | 3.13 µg/mL (≈ 5.45 µM) | 3.13 µg/mL (≈ 5.45 µM) | 0.39 µg/mL (≈ 0.679 µM) | – | – | 3.13 µg/mL (≈ 5.45 µM) | – | – | 0.2 µg/mL (≈ 0.348 µM) | 3.13 µg/mL (≈ 5.45 µM) | MIC (M. morganii 1510/S-1; 1510/S1, read-out: Minimum Inhibition Concentration): 0.39 µg/mL (≈ 0.679 µM); MIC (S. marcescens No. 1; NO.1, read-out: Minimum Inhibition Concentration): 1.56 µg/mL (≈ 2.71 µM)
CO/N=C(\C(=O)N[C@@H]1C(=O)N2C(C(=O)[O-])=C(C[n+]3cc4sccn4c3)CS[C@H]12)c1nsc(N)n1 [Example 30, (6R,7R)-7-[(Z)-2-(5-Amino-1,2,4-thiadiazol-3-yl)-2-methoxyiminoacetamide]-3-(imidazo [5, l-b]thiazolium-6-yl)methyl-3-cephem-4-carboxylate] | 0.1 µg/mL (≈ 0.192 µM) | 0.05 µg/mL (≈ 0.096 µM) | 0.05 µg/mL (≈ 0.096 µM) | 0.05 µg/mL (≈ 0.096 µM) | 0.1 µg/mL (≈ 0.192 µM) | 3.13 µg/mL (≈ 6.01 µM) | – | – | 0.39 µg/mL (≈ 0.749 µM) | 0.39 µg/mL (≈ 0.749 µM) | 0.05 µg/mL (≈ 0.096 µM) | 25 µg/mL (≈ 48 µM) | – | 0.39 µg/mL (≈ 0.749 µM) | – | 12.5 µg/mL (≈ 24 µM) | MIC (P. aeruginosa GN10362; GN10362, read-out: Minimum Inhibition Concentration): 1.56 µg/mL (≈ 3 µM)
C[C@H](O/N=C(\C(=O)N[C@@H]1C(=O)N2C(C(=O)[O-])=C(C[n+]3cc4sccn4c3)CS[C@H]12)c1csc(N)n1)C(=O)O [Example 2, (6R,7R)-7-[(Z)-2-(2-Aminothiazol-4-yl)-2-((S)-l-carboxyethoxy-imino)acetamide]-3-(imidazo[5,1-b]thiazolium-6-yl)methyl-3-cephem-4-carboxylate] | – | 0.05 µg/mL (≈ 0.0866 µM) | 0.05 µg/mL (≈ 0.0866 µM) | ≤ 0.025 µg/mL | ≤ 0.025 µg/mL | 0.78 µg/mL (≈ 1.35 µM) | 0.78 µg/mL (≈ 1.35 µM) | ≤ 0.025 µg/mL | 6.25 µg/mL (≈ 10.8 µM) | 6.25 µg/mL (≈ 10.8 µM) | ≤ 0.025 µg/mL | > 100 µg/mL | – | – | – | 100 µg/mL (≈ 173 µM) | MIC (C. freundii GN346/16; GN346, read-out: Minimum Inhibition Concentration): 0.39 µg/mL (≈ 0.675 µM)
